Test results from patent US10414769B2, “5,8-dimethyl-9-phenyl-5,8-dihydro-6H-pyrazolo[3,4-h]quinazolin-2-yl)-(1H-pyrazol-3-yl)-amines as IGF-1R/IR inhibitors” (Boehringer Ingelheim International GmbH, priority 2015, dated 2019).

Key:
Assay type in all cases: biochemical
[1] = molecular target: T1, MYLK2 (skMLCK) (Homo sapiens, UniProt Q9H1R3); test: Z'-LYTE kinase selectivity assay MYLK2
T1 construct: purchased Life Technologies PV 3757
From the text: (§1) In order to compare the kinase selectivity of compounds (I) according to the invention with known prior art compounds the commercially provided SelectScreen® Kinase Profiling Service (Z′-LYTE®) was used (Life Technologies GmbH, Darmstadt, Germany) to investigate the ability of the compounds to inhibit a number of different, representatively selected human kinases. Further details regarding this service are available on the Life Technologies website at
(§2) The Z′-LYTE® biochemical assay employs a fluorescence-based, coupled-enzyme format and is based on the differential sensitivity of phosphorylated and non-phosphorylated peptides to proteolytic cleavage. The peptide substrate is labeled with two fluorophores—one at each end—that make up a FRET pair.
(§3) In the primary reaction, the kinase transfers the gamma-phosphate of ATP to a single tyrosine, serine or threonine residue in a synthetic FRET-peptide. In the secondary reaction, a site-specific protease recognizes and cleaves non-phosphorylated FRET-peptides. Phosphorylation of FRET-peptides suppresses cleavage by the Development Reagent. Cleavage disrupts FRET between the donor (i.e., coumarin) and acceptor (i.e., fluorescein) fluorophores on the FRET-peptide, whereas uncleaved, phosphorylated FRET-peptides maintain FRET. A ratiometric method, which calculates the ratio (the Emission Ratio) of donor emission to acceptor emission after excitation of the donor fluorophore at 400 nm, is used to quantitate reaction progress, as shown in the equation below.
(§4) The Test Compounds are screened at 1 μM.
The 2×MYLK2 (skMLCK) (# PV 3757)/Ser/Thr 13 (Z′-LYTE® Kinase Assay Kit—Ser/Thr 13 Peptide, # PV 3793) mixture is prepared in 50 mM HEPES pH 7.5, 0.01% BRIJ-35, 10 mM MgCl2, 1 mM EGTA, 4 mM CaCl2, 800 U/mL Calmodulin, 0.02% NaN3. The final 10 μL Kinase Reaction consists of 6.71-48.9 ng MYLK2 (skMLCK) and 2 μM Ser/Thr 13 in 50 mM HEPES pH 7.5, 0.01% BRIJ-35, 10 mM MgCl2, 1 mM EGTA, 2 mM CaCl2, 400 U/mL Calmodulin, 0.01% NaN3. After the 1 hour Kinase Reaction incubation, 5 μL of a 1:1024 dilution of Development Reagent A is added.

[2] = molecular target: T2, ABL1 (Homo sapiens, UniProt P00519); test: Z'-LYTE kinase selectivity assay ABL1
T2 construct: purchased Life Technologies P3049
T2 sequence (P00519 whole entry): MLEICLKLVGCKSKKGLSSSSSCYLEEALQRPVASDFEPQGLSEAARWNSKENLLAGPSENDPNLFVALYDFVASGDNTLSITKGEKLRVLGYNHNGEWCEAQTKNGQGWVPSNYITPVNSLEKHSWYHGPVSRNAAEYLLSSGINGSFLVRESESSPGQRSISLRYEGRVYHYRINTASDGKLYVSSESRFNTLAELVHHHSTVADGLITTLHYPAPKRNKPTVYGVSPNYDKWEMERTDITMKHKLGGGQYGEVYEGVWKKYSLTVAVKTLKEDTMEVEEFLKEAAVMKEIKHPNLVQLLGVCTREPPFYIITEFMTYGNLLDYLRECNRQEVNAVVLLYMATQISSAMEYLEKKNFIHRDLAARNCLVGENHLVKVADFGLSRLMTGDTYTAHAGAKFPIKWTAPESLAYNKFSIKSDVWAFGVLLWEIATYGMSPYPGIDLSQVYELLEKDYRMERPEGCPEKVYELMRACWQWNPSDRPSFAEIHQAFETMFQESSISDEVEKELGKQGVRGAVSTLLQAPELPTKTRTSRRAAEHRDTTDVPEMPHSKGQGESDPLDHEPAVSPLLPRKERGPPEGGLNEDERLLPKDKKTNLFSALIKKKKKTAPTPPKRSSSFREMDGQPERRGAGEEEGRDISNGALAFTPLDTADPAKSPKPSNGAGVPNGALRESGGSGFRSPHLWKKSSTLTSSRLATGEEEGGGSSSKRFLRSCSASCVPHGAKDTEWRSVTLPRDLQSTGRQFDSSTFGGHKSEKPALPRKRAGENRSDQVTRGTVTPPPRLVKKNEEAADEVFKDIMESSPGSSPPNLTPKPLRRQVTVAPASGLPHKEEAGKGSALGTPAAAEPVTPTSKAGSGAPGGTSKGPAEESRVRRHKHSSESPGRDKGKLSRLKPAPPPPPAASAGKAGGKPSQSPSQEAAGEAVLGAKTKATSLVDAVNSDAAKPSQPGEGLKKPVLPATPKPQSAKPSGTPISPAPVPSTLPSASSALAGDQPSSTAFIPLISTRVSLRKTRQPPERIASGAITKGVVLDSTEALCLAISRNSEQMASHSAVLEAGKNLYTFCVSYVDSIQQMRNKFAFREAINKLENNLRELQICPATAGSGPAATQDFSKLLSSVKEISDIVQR
From the text: as §1, §2, §3, §4
The 2×ABL1 (# P3049)/Tyr 02 (Z′-LYTE® Kinase Assay Kit—Tyrosine 2 Peptide, # PV 3191) mixture is prepared in 50 mM HEPES pH 7.5, 0.01% BRIJ-35, 10 mM MgCl2, 1 mM EGTA. The final 10 μL Kinase Reaction consists of 0.29-2.52 ng ABL1 and 2 μM Tyr 02 in 50 mM HEPES pH 7.5, 0.01% BRIJ-35, 10 mM MgCl2, 1 mM EGTA. After the 1 hour Kinase Reaction incubation, 5 μL of a 1:128 dilution of Development Reagent A is to added.

[3] = molecular target: T3, human IGF-1R (Homo sapiens, UniProt P08069); test: Insulin-like growth factor-1 receptor (IGF-1R)-kinase assay (DELFIA); conditions: inhibition of IGF-1R-kinase activity
T3 construct: human IGF-1R (amino acids 964-1370) is expressed as a fusion protein; made in house; host or cells: High Five insect cells (Invitrogen)
T3 sequence (P08069 964-1367 limits assumed): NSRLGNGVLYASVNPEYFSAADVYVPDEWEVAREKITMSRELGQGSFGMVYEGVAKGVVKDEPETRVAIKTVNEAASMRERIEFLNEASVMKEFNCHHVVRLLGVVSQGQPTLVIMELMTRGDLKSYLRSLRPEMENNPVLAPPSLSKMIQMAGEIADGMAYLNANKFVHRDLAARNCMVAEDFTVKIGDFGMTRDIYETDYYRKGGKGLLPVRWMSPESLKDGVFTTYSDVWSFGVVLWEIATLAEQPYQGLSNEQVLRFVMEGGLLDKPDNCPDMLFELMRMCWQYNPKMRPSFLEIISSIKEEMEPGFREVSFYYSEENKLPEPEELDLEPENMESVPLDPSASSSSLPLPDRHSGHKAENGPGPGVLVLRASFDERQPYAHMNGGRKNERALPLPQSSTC
Experimental: Insulin-Like Growth Factor-1 Receptor (IGF-1R)-Kinase Assay
The kinase activity is measured by DELFIA® assay (dissociation-enhanced lanthanide fluorescence immunoassay, Perkin Elmer). The cytoplasmic kinase domain of human IGF-1R (amino acids 964-1370) is expressed as a fusion protein with a glutathione-S-transferase tag (IGF-1R-GST) in High Five™ Cells (Invitrogen). Enzyme activity is measured in the presence of substances and a control substance. Poly-glutamate-tyrosine peptide (pEY, Sigma Aldrich) and biotinylated pEY (bio-pEY) are used as reaction substrates.
10 μL of substance in 25% DMSO are mixed with 30 μL of IGF-1R-GST solution (67 mM HEPES pH 7.4, 15 μg/mL pEY, 1.7 μg/mL bio-pEY, 13.3 mM MgCl2, 3.3 mM dithiothreitol, 0.0033% Brij 35, 2 ng IGF-1R-GST) in 96-well plates. The reactions are started with 10 μL of a 750 μM ATP solution. After 40 min at RT the reactions are stopped with 50 μL of stop solution (250 mM EDTA, 20 mM HEPES pH 7.4). 90 μL from each reaction are transferred onto streptavidin-coated 96-well plates. After 120 min incubation at RT the plates are washed three times with 200 μL phosphate-buffered saline (PBS) per well. The plates are incubated for 60 min with 100 μL of europium-coupled antibody against phospho-tyrosine (diluted 1/2000 in Perkin Elmer DELFIA assay buffer) per well. The plates are washed three times with 200 μL per well of DELFIA washing buffer (Perkin Elmer). 100 μL DELFIA Enhancement Solution (Perkin Elmer) is added to each well, and the plates are incubated for 10 min. The fluorescence signal is measured with a Wallac Victor TRF Reader. IC50 values for the inhibition of the IGF-1R-kinase activity are calculated using the programme GraphPad (Version 3.0).

| SMILES | inhibition at 1 µM [1] [%] | inhibition at 1 µM [2] [%] | IC50 [3] [nM] |
| --- | --- | --- | --- |
| C[C@@H]1Cc2nn(C)c(-c3ccccc3)c2-c2nc(Nc3ccn(CCN4CCN(C)CC4)n3)ncc21 [Compound I-1] | 16 | 24 | 0.9 |
| C[C@@H]1Cc2nn(C)c(-c3ccccc3)c2-c2nc(Nc3ccn(CCN4CCOCC4)n3)ncc21 [Compound I-2] | 3 | 17 | 1.3 |
| C[C@@H]1Cc2nn(C)c(-c3ccccc3)c2-c2nc(Nc3ccn(CCN4CCN(CC(C)(C)O)CC4)n3)ncc21 [Compound I-3] | 12 | 27 | 1.9 |
| CC(O)CN1CCN(CCn2ccc(Nc3ncc4c(n3)-c3c(nn(C)c3-c3ccccc3)C[C@H]4C)n2)CC1 (stereo partly drawn) [Compound I-7] | 23 | 22 | 1 |
| C[C@@H]1Cc2nn(C)c(-c3ccccc3)c2-c2nc(Nc3ccn(CCN4CCN(CC(=O)OC5CCOCC5)CC4)n3)ncc21 [Compound I-8] | 13 | 10 | 2.8 |
| C[C@@H]1Cc2nn(C)c(-c3ccccc3)c2-c2nc(Nc3ccn(CCN4CCN(CC5CCCO5)CC4)n3)ncc21 (stereo partly drawn) [Compound I-9] | 10 | 17 | 1.2 |
| COCCN1CCN(CCn2ccc(Nc3ncc4c(n3)-c3c(nn(C)c3-c3ccccc3)C[C@H]4C)n2)CC1 [Compound I-11] | 16 | 10 | 0.9 |
